Data taken from ChEMBL document CHEMBL1201862, “PubChem BioAssay data set” (2004).
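Growth conditions: 96-well plates. Treatment: test compound, 48 hours, 5 concentrations. Analysis: linear interpolation between bracketing concentrations; unreached endpoints set to highest concentration. Abbreviation: GI50, concentration required for 50% inhibition of growth.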 Active and inactive are the calls of the source. Cut-off read from the data, not from the text of the source: active = GI50 up to about 1.1 µM and inactive = higher. *1 amine or outer side, *2 acyl side, *3 side chain or, on linkers, in order; H or OH if unused. Where a SMILES comes first, the peptide text is derived from it. Bridges are numbered along the chain shown (N, C = ends). Roman numbers before positions name the chains, in order. [ ]: non-standard residue; d: D form. Actinocin(1to9) = Cc1c2oc3c(C)ccc(C(=O)[*:2])c3nc-2c(C(=O)[*:1])c(N)c1=O; NMeV = CN[CH](C(=O)O)C(C)C; Sar = CNCC(=O)O

Tests used:
Assay in all cases: NCI tumour cell line growth inhibition, 48 h
[1] = system: T47D
[2] = system: SF-268
[3] = system: NCI/ADR-RES
[4] = system: SR
[5] = system: A498
[6] = system: A549
[7] = system: MDA-MB-231
[8] = system: SF-539
[9] = system: SK-MEL-5
[10] = system: MDA-MB-435
[11] = system: OVCAR-4
[12] = system: HCT-15
[13] = system: COLO 205
[14] = system: NCI-H522
[15] = system: CAKI-1
[16] = system: M14
[17] = system: SK-MEL-2
[18] = system: HOP-62
[19] = system: NCI-H226
[20] = system: IGROV-1

CN1CCN(Cc2nc3cccc4c3c([n+]2[O-])-c2ccccc2-4)CC1
GI50 [1]: 29.3 µM (inactive) | GI50 [2]: 17.9 µM (inactive) | GI50 [3]: 10.6 µM (inactive) | GI50 [4]: 4.19 µM (inactive) | GI50 [5]: 15.8 µM (inactive) | GI50 [6]: 14.8 µM (inactive) | GI50 [7]: 15.8 µM (inactive) | GI50 [8]: 25.4 µM (inactive) | GI50 [9]: 19.1 µM (inactive) | GI50 [10]: 15.6 µM (inactive) | GI50 [11]: 25.2 µM (inactive) | GI50 [12]: 29 µM | GI50 [13]: 16.9 µM (inactive) | GI50 [14]: 14.3 µM (inactive) | GI50 [15]: 25.5 µM (inactive) | GI50 [16]: 23.2 µM (inactive) | GI50 [17]: 23.1 µM (inactive) | GI50 [18]: 30 µM (inactive) | GI50 [19]: 26.8 µM (inactive) | GI50 [20]: 32.5 µM (inactive)

Nc1nc(N)nc(CCCc2nc(N)nc(N)n2)n1
GI50 [1]: > 100 µM (inactive) | GI50 [2]: > 100 µM (inactive) | GI50 [3]: > 100 µM (inactive) | GI50 [4]: > 100 µM (inactive) | GI50 [5]: > 100 µM (inactive) | GI50 [6]: > 100 µM (inactive) | GI50 [7]: > 100 µM (inactive) | GI50 [8]: > 100 µM (inactive) | GI50 [9]: > 100 µM (inactive) | GI50 [10]: > 100 µM (inactive) | GI50 [11]: > 100 µM (inactive) | GI50 [12]: > 100 µM | GI50 [13]: > 100 µM (inactive) | GI50 [14]: > 100 µM (inactive) | GI50 [15]: > 100 µM (inactive) | GI50 [16]: > 100 µM (inactive) | GI50 [17]: > 100 µM (inactive) | GI50 [18]: > 100 µM (inactive) | GI50 [19]: > 100 µM (inactive) | GI50 [20]: > 100 µM (inactive)

CCCC(=O)O[C@H]1C=C2C[C@@]34SS[C@]5(CC6=C[C@H](OC(C)=O)[C@@H]7O[C@@H]7[C@H]6N5C3=O)C(=O)N4[C@@H]2[C@H]2O[C@H]21
GI50 [1]: 0.0256 µM (active) | GI50 [2]: 0.00775 µM (active) | GI50 [3]: 0.0128 µM (active) | GI50 [4]: < 0.005 µM (active) | GI50 [5]: 0.0279 µM (active) | GI50 [6]: 0.0311 µM (active) | GI50 [7]: 0.0254 µM (active) | GI50 [8]: 0.0194 µM (active) | GI50 [9]: 0.12 µM (active) | GI50 [10]: 0.0127 µM (active) | GI50 [11]: 0.0197 µM (active) | GI50 [12]: 0.0224 µM | GI50 [13]: 0.0137 µM (active) | GI50 [14]: < 0.005 µM (active) | GI50 [15]: 0.0175 µM (active) | GI50 [16]: 0.0129 µM (active) | GI50 [17]: 0.0552 µM (active) | GI50 [18]: 0.01 µM (active) | GI50 [19]: 0.0766 µM (active) | GI50 [20]: 0.0168 µM (active)

COC(=O)[C@@]1(Cc2ccc(OC(C)=O)cc2)Cc2cc3ccccc3n2N1
GI50 [1]: 24.8 µM (inactive) | GI50 [2]: 60.4 µM (inactive) | GI50 [3]: 26.5 µM (inactive) | GI50 [4]: 13.5 µM (inactive) | GI50 [5]: 23.1 µM (inactive) | GI50 [6]: 47.2 µM (inactive) | GI50 [7]: 29.2 µM (inactive) | GI50 [8]: 58.7 µM (inactive) | GI50 [9]: 18.2 µM (inactive) | GI50 [10]: 43.6 µM (inactive) | GI50 [11]: 75.5 µM (inactive) | GI50 [12]: 53.5 µM | GI50 [13]: 31.2 µM (inactive) | GI50 [14]: 24 µM (inactive) | GI50 [15]: > 100 µM (inactive) | GI50 [16]: 39.4 µM (inactive) | GI50 [17]: 18.2 µM (inactive) | GI50 [18]: > 100 µM (inactive) | GI50 [19]: 63.4 µM (inactive) | GI50 [20]: 55.8 µM (inactive)

O=C(O)C1CC2C3CCC2C1C3=O (stereo not given)
GI50 [1]: > 100 µM (inactive) | GI50 [2]: > 100 µM (inactive) | GI50 [3]: > 100 µM (inactive) | GI50 [4]: > 100 µM (inactive) | GI50 [5]: > 100 µM (inactive) | GI50 [6]: > 100 µM (inactive) | GI50 [7]: > 100 µM (inactive) | GI50 [8]: > 100 µM (inactive) | GI50 [9]: > 100 µM (inactive) | GI50 [10]: > 100 µM (inactive) | GI50 [11]: > 100 µM (inactive) | GI50 [12]: > 100 µM | GI50 [13]: > 100 µM (inactive) | GI50 [14]: > 100 µM (inactive) | GI50 [15]: > 100 µM (inactive) | GI50 [16]: > 100 µM (inactive) | GI50 [17]: > 100 µM (inactive) | GI50 [18]: > 100 µM (inactive) | GI50 [19]: > 100 µM (inactive) | GI50 [20]: > 100 µM (inactive)

CCCCCCCCCCCCCCCC(=O)N(CCCCCCCCCCC(=O)O)CC(O)C(O)C(OC1OC(CO)C(O)C(O)C1O)C(O)CO (stereo not given)
GI50 [1]: 40.7 µM (inactive) | GI50 [2]: 21.3 µM (inactive) | GI50 [3]: 25.7 µM (inactive) | GI50 [4]: 29.1 µM (inactive) | GI50 [5]: > 100 µM (inactive) | GI50 [6]: > 100 µM (inactive) | GI50 [7]: > 100 µM (inactive) | GI50 [8]: 21.3 µM (inactive) | GI50 [9]: 33.5 µM (inactive) | GI50 [10]: 49.4 µM (inactive) | GI50 [11]: 60.3 µM (inactive) | GI50 [12]: 41.2 µM | GI50 [13]: 18.4 µM (inactive) | GI50 [14]: 39.3 µM (inactive) | GI50 [15]: 64 µM (inactive) | GI50 [16]: 20.7 µM (inactive) | GI50 [17]: 19 µM (inactive) | GI50 [18]: 23.5 µM (inactive) | GI50 [19]: > 100 µM (inactive) | GI50 [20]: 60.8 µM (inactive)

COc1ccc(CC2NC(=O)C(NC(=O)c3c4nc5c(C(=O)NC6C(=O)NC(Cc7ccc(OC)cc7)C(=O)N7CCCC7C(=O)N(C)CC(=O)N(C)C(C(C)C)C(=O)OC6C)ccc(C)c5oc-4c(C)c(=O)c3N)C(C)OC(=O)C(C(C)C)N(C)C(=O)CN(C)C(=O)C3CCCN3C2=O)cc1 (stereo not given) (I: TY(Me)P[Sar][NMeV] / II: TY(Me)P[Sar][NMeV]; ester I:1-I:C, II:1-II:C; linker I:N-II:N via Actinocin(1to9); configuration not given here)
GI50 [1]: < 0.001 µM (active) | GI50 [2]: 0.0219 µM (active) | GI50 [3]: 0.48 µM (active) | GI50 [4]: < 0.001 µM (active) | GI50 [5]: 0.00299 µM (active) | GI50 [6]: < 0.001 µM (active) | GI50 [7]: 0.0371 µM (active) | GI50 [8]: < 0.001 µM (active) | GI50 [9]: < 0.001 µM (active) | GI50 [10]: < 0.001 µM (active) | GI50 [11]: 0.0485 µM (active) | GI50 [12]: 0.0579 µM | GI50 [13]: < 0.001 µM (active) | GI50 [14]: < 0.001 µM (active) | GI50 [15]: 0.00869 µM (active) | GI50 [16]: 0.00678 µM (active) | GI50 [17]: 0.015 µM (active) | GI50 [18]: 0.00681 µM (active) | GI50 [19]: 0.0135 µM (active) | GI50 [20]: < 0.001 µM (active)
